{
  "source": "patent US20040002510A1",
  "about": "“Crystalline micronisate, process for the manufacture thereof and use thereof for the preparation of a medicament” (Boehringer Ingelheim Pharma GmbH & Co. KG, priority 2002, published 2004)",
  "key": {"[1]": {"experiment": "Determining particle size by laser diffraction (Fraunhofer diffraction)", "type": "physicochemical", "conditions": "air dispersal", "source_text": "The micronisate of tiotropium bromide obtainable by the above method has a characteristic particle size X50 of between 1.0 μm and 3.5 μm, preferably between 1.1 μm and 3.3 μm, most preferably between 1.2 μm and 3.0 μm and Q(5.8) of more than 60%, preferably more than 70%, most preferably more than 80%. The characteristic value X50 denotes the median value of the particle size below which 50% of the particles fall, with regard to the distribution by volume of the individual particles. The characteristic value Q(5.8) corresponds to the quantity of particles below 5.8 μm , based on the volume distribution of the particles. The particle sizes were determined within the scope of the present invention by laser diffraction (Fraunhofer diffraction). More detailed information on this subject can be found in the experimental descriptions of the invention.\nD.2) Determining Particle Size by Laser Diffraction (Fraunhofer Diffraction)\nTo determine the particle size the powder is fed into a laser diffraction spectrometer by means of a dispersing unit."}, "[2]": {"experiment": "Determining the heat of solution (enthalpy of solution) by solution calorimeter", "type": "physicochemical", "conditions": "chemically pure water, 25° C., mass corrected by water content", "procedure": "D.4) Determining the Heat of Solution (Enthalpy of Solution) Ec:\nThe solution enthalpy is determined using a solution calorimeter 2225 Precision Solution Calorimeter made by Messrs. Thermometric. The heat of solution is calculated by means of the change in temperature occurring (as a result of the dissolving process) and the system-related change in temperature calculated from the base line. Before and after the ampoule is broken, electrical calibration is carried out with an integrated heating resistor of a precisely known power. A known heat output is delivered to the system over a set period and the jump in temperature is determined.\nThe electrical calibration takes place during the measurement, once before and once after the breakage of the ampoule. The calibration after the breakage of the ampoule is used for the evaluation.\nAs the mass of the tiotropium bromide micronisate weighed out has to be corrected by the water content of the material, the unsealed ampoules together with about 1 g of the test substance are left to stand open for at least 4 hours. After this equilibration time the ampoules are sealed with the silicon stoppers and the water content of the bulk sample is determined by Karl-Fischer titration. […]\nThe corrected mass mc determined by this calculation is used as the input value (=weight) to calculate the solution enthalpy measured."}},
  "data": [
    {"smiles": "C[N+]1(C)C2C[C@H](OC(=O)C(O)(c3cccs3)c3cccs3)C[C@H]1[C@H]1OC21", "note": "(stereo partly drawn) [tiotropium bromide micronisate, (1α,2β,4β,5α,7β)-7-[(hydroxydi-2-thienylacetyl)oxy]-9,9-dimethyl-3-oxa-9-azoniatricyclo[3.3.1.0^2,4]nonane-bromide]", "values": [
      {"measurement": "Q(5.8) (quantity of particles below 5.8 μm, based on the volume distribution)", "setting": "[1]", "value": "more than 60%"},
      {"measurement": "specific enthalpy of solution (heat of solution)", "setting": "[2]", "value": "more than 65 Ws/g"}
    ]}
  ]
}
